From patent US10716773B2, “Compositions comprising 15-HEPE and methods of treating or preventing cancer and neurologic disease” (Afimmune Limited, priority 2015, dated 2020)
“And” between values parts separate entries of the source, which are not always exact repeats. Equal entries are not always repeated.

Test system: caspase-3/7
Assay: Staurosporine-induced caspase-3/7 activity in NHDF, measured in cell lysates with fluorogenic substrate Ac-DEVD-AMC
Type: cell-based, human
Protocol: The potential inhibitory effect of compounds 15(S)-HEPE EE and EPA EE was evaluated on staurosporine-induced caspase activation in normal human dermal fibroblasts (NHDF). […] Normal human dermal fibroblasts (NHDF) were used at the 8th passage. […] Fibroblasts were seeded in 24-well plates and cultured for 24 hours in culture medium. The medium was then removed and replaced by assay medium containing or not (control) the test compounds and cells were pre-incubated for 24 hours. […] The cells were then incubated for 24 hours. Non-stimulated controls (without inducer) were performed in parallel. All experimental conditions were performed in n=3. […] Enzyme activity assay and protein quantification assay were performed in separated plates due to the fact that DTT used in the lysis buffer for caspase activity interferes with protein quantification. […] Lysis buffer: HEPES buffer (pH 7.4) containing EDTA, Triton X-100, NP-40 and DTT Assay Buffer: HEPES buffer (pH 7.4) containing NaCl, EDTA, NP-40, glycerol and DTT Substrate: Ac-DEVD-AMC, tested at 10 μM (stock solution at 1.5 mM in DMSO) Reference inhibitor: […] Ac-DEVD-AMC is a synthetic tetrapeptide fluorogenic substrate for caspase-3 and caspase-7 and contains the amino acid sequence of the PARP cleavage site at […]. […] Enzymes cleave the tetrapeptide between D and AMC resulting in the release of fluorogenic AMC, which can be quantified with a spectrofluorometer. […] In parallel, an additional control (assay buffer containing the substrate) was also performed to determine the background signal. At the end of incubation, the fluorescence intensity emitted by the reaction product (cleaved Ac-DEVD-AMC) was measured at wavelengths λex 380 nm and λem 440 nm using a spectrofluorimeter (SPECTRAmax® Gemini, Molecular Devices).

[1] = 0.1 μm, inhibitor added in the reaction mix of stimulated control lysate
[2] = 0.1 μm, inhibitor added in the reaction mix of stimulated control lysate, single replicates, listed as Ao-DEVO-CHO

Compound: CN[C@@H]1C[C@H]2O[C@@](C)([C@@H]1OC)n1c3ccccc3c3c4c(c5c6ccccc6n2c5c31)C(=O)NC4 [staurosporine]
- increase of caspase-3/7 activity normalized versus protein quantity, staurosporine-stimulated versus non-stimulated conditions (staurosporine 100 nM, NHDF): 10 fold

Compound: Ac-DEVD-CHO
- inhibition of staurosporine-stimulated caspase-3/7 activity (in words) (0.1 μM, added in the reaction mix): fully inhibited
- % inhibition [1]: 109%
- % stimulated control [1]: 1%
- Normalized data: Mean (caspase-3/7 activity/proteins) [1]: 954 AU/mg
- Caspase-3/7 activity (Fluorescence 380 nm/440 nm) [2]: 347 AU and 343 AU and 339 AU
- Caspase-3/7 activity - Background (Fluorescence 380 nm/440 nm) [2]: 17 AU and 13 AU and 10 AU
- Caspese-3/7 activity/proteins [2]: 1254 AU/mg and 934 AU/mg and 674 AU/mg
